# Values of other authors as cited in US6440438B2, “Covering impregnated with insecticide” (Protec Health International Limited, priority 1997, dated 2002).
# Tests used:
# [1] = placed directly in contact with the skin
# [2] = not given; remark: listed apart in the source
structure (smiles),measurement,setting,value
CC1(C)C(C=C(Cl)Cl)C1C(=O)OCc1cccc(Oc2ccccc2)c1 (stereo not shown) [Permethrin],solubility in water,,does not dissolve in water
same,proportion of the chemical absorbed by the skin,[1],about 0.5%
same,"period within which skin sensations (numbing, burning, tingling) usually subside","[2]; contact with permethrin, reversible",twelve
same,toxicity to humans,[2]; in vivo,not considered toxic
